Read-outs that look alike come from different tables or passages of the source.
How the values were obtained:
[1] = system: H2O2-induced PAR formation (PARP-1 activity) in HCT116 cells; assay: PAR immunofluorescence: H2O2-induced PAR formation in HCT116 cells; type: cell-based, human; conditions: for IC50: Homo sapiens, HCT-116, 2 h pretreatment, 1 mM H2O2 5 min
Method: Cells lines were re-authenticated by p53, PARP-1, ATR, and BRCA2 immunoblotting, by their characteristic differential response to genotoxic agents and their typical cell morphology. HCT116, HCT116 BRCA2^−/−, DLD-1 ATR^+/+ and DLD-1 ATR^s/s cells were maintained in DMEM, whereas HCT116 PARP-1^+/+ and HCT116 PARP-1^−/− cells were maintained in RPMI1640 containing 10% FCS and 1% penicillin/streptomycin in a humidified atmosphere at 37 °C and 5% CO2. Caco-2 cells were cultured in MEM with 10% FCS, 1% penicillin/streptomycin, and nonessential amino acids. […] The media and supplements were obtained from PAN-Biotech (Aidenbach, Germany) and Thermo Fisher Scientific (Darmstadt, Germany). Cell culture was frequently tested for contamination with mycoplasma by PCR using the Venor® GeM Classic kit (Minerva Biolabs, Berlin, Germany) and immunofluorescence microscopy with nuclear staining. […] Cells were exposed for 1 h for the quantification of PARP-1 trapping or 2 h for assessing the inhibitory potential by confocal fluorescence microscopy. […] If the PARPi treatment was conducted in combination with cytostatic drugs for 24 h (γH2AX Western blot analysis) or 72 h (cytotoxicity testing), the PARPi was added 2 h prior.
The activity of potential PARP inhibitors was tested in a cell model using immunofluorescence-based detection of PAR essentially as reported previously. HCT116 cells were seeded in Ibidi 12-well chamber slides and cultivated until they reached 70% confluence. Induction of PARylation was achieved by adding 1 mM H2O2 in PBS/1 mM MgCl2 for 5 min at 37 °C. Cells were washed with PBS/1 mM MgCl2 and fixed by adding 4% PFA at RT. After 20 min, cells were washed with PBS/100 mM glycine for 1 min and permeabilized with PBS/0.3% Triton X-100 for 3 min. Blocking of the cells was conducted by adding PBS/0.05% Tween containing 5% powdered milk for 1 h at RT. […] Cells were washed and an Alexa488-coupled secondary antibody was added for 1 h at RT. The slides were mounted with VectaShield containing DAPI and analyzed by confocal microscopy using a Zeiss Axio Observer 7 microscope (Oberkochen, Germany) equipped with a 63× oil objective (Plan-Apochromat 63×/1.40 DIC M27) and a LSM900 confocal laser scanner (Zeiss, Oberkochen, Germany). Images were analyzed using Zeiss Zen software version 3.4 and ImageJ v1.53t (NIH, Bethesda, MD, USA). Briefly, nuclei were identified based on the DAPI signal and marked as regions of interest (ROI). Subsequently, the mean PAR signal in the identified ROI was quantified in each image and exported for further analysis. For the individual experiments, the mean PAR intensity was averaged for each treatment group and the control was set to 100%. Only images with a minimum of 4 cells were included in the analysis and at least 5 images were assessed per treatment group. The experiments were conducted in at least 3 biological replicates. To derive IC50 concentrations, relative PAR levels of the experiments were transferred to GraphPad Prism 9.0 Software (GraphPad Software Inc., Boston, MA, USA) for a nonlinear regression analysis applying a three-parameter model.

PARP-2 = system: PARP-2; parameters: method as in PMID 34327724; conditions: cited from earlier work
P-glycoprotein = system: P-glycoprotein; parameters: method as in PMID 24700236; conditions: efflux transporter; cited from earlier work
[2] = system: human colonic epithelial cells (HCEC); assay: cell viability, resazurin reduction assay, HCEC; conditions: 72 h; for IC50: read-out: IC50-values HCEC; for cell viability, monotreatment: nonmalignant HCEC, up to 50 µM
Caco-2 cells = assay: cell viability, resazurin reduction assay, Caco-2; conditions: for cell viability, monotreatment: up to 50 µM; for cytotoxicity of IT in combination with PARPi: not statistically significant; for IC50: read-out: IC50-values Caco-2
DLD-1 WT cells = assay: cell viability, resazurin reduction assay, DLD-1 WT; conditions: for IC50: read-out: IC50-values DLD-1 WT; for cell viability, monotreatment: DLD-1 WT
HCT116 WT cells = assay: cell viability, resazurin reduction assay, HCT116 WT; conditions: for IC50: Homo sapiens, HCT-116, 72 h, read-out: IC50-values HCT116 WT
DLD-1 ATRs/s cells = assay: cell viability, resazurin reduction assay, DLD-1 ATRs/s; conditions: for IC50: read-out: IC50-values DLD-1 ATRs/s; for cell viability, monotreatment: DLD-1 ATRs/s
HCT116 BRCA2−/− cells = assay: cell viability, resazurin reduction assay, HCT116 BRCA2-/-; conditions: for IC50: read-out: IC50-values HCT116 BRCA2−/−
HCT116 PARP-1+/+ cells = assay: cell viability, resazurin reduction assay, HCT116 PARP-1+/+; conditions: for IC50: read-out: IC50-values HCT116 PARP1+/+
HCT116 PARP-1−/− cells = assay: cell viability, resazurin reduction assay, HCT116 PARP-1-/-; conditions: for IC50: read-out: IC50-values HCT116 PARP1−/−
PARP-1 [3] = target: T1, PARP-1 (Homo sapiens, UniProt P09874); assay: chemiluminescence-based PARP-1 assay kit (recombinant enzyme); conditions: for IC50: IC50 PARP-1 screening assay kit
[4] = system: γH2AX formation in HCT116 WT cells; assay: γH2AX Western blot in HCT116 WT cells
[5] = system: γH2AX formation in HCT116 BRCA2−/− cells; assay: γH2AX Western blot in HCT116 BRCA2-/- cells; conditions: PARPi 50 µM, IT 0.25 µM 24 h
PARP-1 [6] = target: T1, PARP-1; assay: chromatin retention assay (PARP-1 trapping) in HCT116 cells; conditions: HCT116, MMS 1 mM 1 h with inhibitor
PARP-1 [7] = target: T1, PARP-1; assay: chromatin retention assay (PARP-1 trapping) in Caco-2 cells; conditions: Caco-2, MMS 1 mM 1 h with inhibitor

T1 sequence (P09874 whole entry): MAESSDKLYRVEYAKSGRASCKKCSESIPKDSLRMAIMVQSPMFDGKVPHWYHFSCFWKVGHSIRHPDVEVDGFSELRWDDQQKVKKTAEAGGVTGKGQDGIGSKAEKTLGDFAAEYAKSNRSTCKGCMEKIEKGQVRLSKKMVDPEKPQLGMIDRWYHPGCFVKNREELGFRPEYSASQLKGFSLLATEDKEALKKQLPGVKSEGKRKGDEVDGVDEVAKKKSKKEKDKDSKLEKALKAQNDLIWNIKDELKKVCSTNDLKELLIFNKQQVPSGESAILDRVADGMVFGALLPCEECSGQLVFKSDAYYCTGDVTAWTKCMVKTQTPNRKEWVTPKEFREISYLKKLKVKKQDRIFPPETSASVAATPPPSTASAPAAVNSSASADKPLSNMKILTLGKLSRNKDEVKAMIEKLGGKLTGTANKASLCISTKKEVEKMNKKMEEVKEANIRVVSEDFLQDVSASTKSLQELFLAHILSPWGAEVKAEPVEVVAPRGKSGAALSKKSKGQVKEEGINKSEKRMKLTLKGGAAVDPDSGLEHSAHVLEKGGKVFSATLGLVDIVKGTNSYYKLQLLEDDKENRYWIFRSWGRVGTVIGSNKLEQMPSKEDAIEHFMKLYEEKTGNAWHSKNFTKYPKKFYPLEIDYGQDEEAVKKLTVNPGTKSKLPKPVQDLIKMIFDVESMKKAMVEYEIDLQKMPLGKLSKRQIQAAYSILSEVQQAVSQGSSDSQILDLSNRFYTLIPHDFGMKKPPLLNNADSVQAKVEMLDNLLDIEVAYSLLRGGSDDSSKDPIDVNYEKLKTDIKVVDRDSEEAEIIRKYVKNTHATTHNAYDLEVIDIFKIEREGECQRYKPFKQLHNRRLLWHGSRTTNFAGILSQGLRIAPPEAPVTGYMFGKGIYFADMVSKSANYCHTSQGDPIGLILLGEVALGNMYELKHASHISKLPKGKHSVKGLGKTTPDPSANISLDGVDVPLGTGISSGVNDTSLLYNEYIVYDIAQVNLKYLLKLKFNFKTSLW

Compound: O=C(c1cc(Cc2n[nH]c(=O)c3ccccc23)ccc1F)N1CCN(C(=O)C2CC2)CC1 [Olaparib, olaparib]
- PAR formation ([1]; 10 nM, positive control): completely blocked PAR formation
- P-glycoprotein substrate (P-glycoprotein): known substrates for P-glycoprotein
- IC50 ([2]; Homo sapiens, HCEC): > 50 µM
- cell viability, monotreatment [2]: moderate decline in viability at the highest concentration
- cell viability, monotreatment (Caco-2 cells; Caco-2, 72 h): concentration-dependent reduction in Caco-2 viability
- cytotoxicity of IT in combination with PARPi (Caco-2 cells; Caco-2, IT 10 µM): moderately increased the cytotoxicity of IT
- IC50 (Caco-2 cells; Homo sapiens, Caco-2, 72 h): > 50 µM
- IC50 (DLD-1 WT cells; Homo sapiens, DLD-1, 72 h): 5.88 µM
- IC50 (HCT116 WT cells): 8.4 µM
- IC50 (DLD-1 ATRs/s cells; Homo sapiens, DLD-1, 72 h): 1.99 µM
- cytotoxicity, monotreatment (HCT116 BRCA2−/− cells; HCT116 BRCA2−/−, 72 h): High cytotoxicity in the low micromolar concentration range
- IC50 (HCT116 BRCA2−/− cells; Homo sapiens, HCT-116, 72 h): 0.46 µM

Compound: C[C@]1(c2nc3c(C(N)=O)cccc3[nH]2)CCCN1 [Veliparib, veliparib]
- P-glycoprotein substrate (P-glycoprotein): are not excreted
- cell viability, monotreatment [2]: no effect on HCEC
- IC50 ([2]; RRA): > 50 µM
- cell viability, monotreatment (Caco-2 cells; Caco-2, 72 h): little cytotoxicity at the highest test concentration
- cytotoxicity of IT in combination with PARPi (Caco-2 cells; Caco-2, IT 10 µM): moderately increased the cytotoxicity of IT
- IC50 (Caco-2 cells; 72 h, RRA): > 50 µM
- cell viability, monotreatment (DLD-1 WT cells; 72 h): concentration-dependent decrease in viability in both cell models
- IC50 (DLD-1 WT cells; 72 h, RRA): > 50 µM
- cell viability, monotreatment (DLD-1 ATRs/s cells; 72 h): concentration-dependent decrease in viability in both cell models
- IC50 (DLD-1 ATRs/s cells; 72 h, RRA): > 50 µM
- cytotoxicity, monotreatment (HCT116 BRCA2−/− cells; HCT116 BRCA2−/−, 72 h): High cytotoxicity in the low micromolar concentration range
- IC50 (HCT116 BRCA2−/− cells): 7.45 µM
- cell viability in combination with cytostatics (HCT116 PARP-1+/+ cells): significant decrease in cell viability compared to mono-treatment with cytostatics
- cell viability, monotreatment (HCT116 PARP-1+/+ cells): only mild cytotoxicity at the highest test concentration
- IC50 (HCT116 PARP-1+/+ cells): > 50 µM
- cell viability in combination with cytostatics (HCT116 PARP-1−/− cells): did not sensitize to the anticancer drugs
- cell viability, monotreatment (HCT116 PARP-1−/− cells): only mild cytotoxicity at the highest test concentration
- IC50 (HCT116 PARP-1−/− cells): > 50 µM
- PARP-1 activity, % of the negative control (PARP-1 [3]; concentration of 5 nM): ~50%

Compound: O=C(O)C1=NNC(=O)c2cccc3[nH]cc1c23 [X17613, 1-oxo-2,6-dihydro-1H-[1,2]diazepino [4,5,6-cd]indole-4-carboxylic acid]
- IC50 ([1]; range over the three compounds, read-out: IC50 cellular PARP inhibition): 0.005 to 0.035 µM
- IC50 ([1]; unit inferred, read-out: IC50 PAR formation in HCT116 cells (Figure A3A)): 0.036 µM
- PAR signal ([1]; concentration of 100 nM, H2O2-induced): significant decrease in the PAR signal
- γH2AX, co-treatment with IT compared to IT mono-treatment ([4]; PARPi 50 µM 2 h prior, IT 0.25 µM 24 h): no significant further increase
- γH2AX, mono-treatment ([4]; X17613 50 µM or IT 0.25 µM, 24 h): No significant increase in γH2AX
- γH2AX, co-treatment with IT [5]: further augmented in the presence of X17613
- IC50 ([2]; Homo sapiens, HCEC): > 50 µM
- cell viability, monotreatment [2]: no effect on HCEC
- cell viability, monotreatment (Caco-2 cells; Caco-2, 72 h): little cytotoxicity at the highest test concentration
- sensitization towards the anticancer drugs (Caco-2 cells; Caco-2, IT 10 µM, 5-FU 5 µM, OXA 1 µM): no sensitization towards the anticancer drugs
- IC50 (Caco-2 cells; Homo sapiens, Caco-2, 72 h): > 50 µM
- cell viability, monotreatment (DLD-1 WT cells; 72 h): no effects
- IC50 (DLD-1 WT cells; Homo sapiens, DLD-1, 72 h): > 50 µM
- cell viability, monotreatment (HCT116 WT cells; HCT116 WT, 72 h, up to 50 µM): no impact
- IC50 (HCT116 WT cells): > 50 µM
- cell viability, monotreatment (DLD-1 ATRs/s cells; 72 h): no effects
- IC50 (DLD-1 ATRs/s cells; Homo sapiens, DLD-1, 72 h): > 50 µM
- decrease of viability (HCT116 BRCA2−/− cells; HCT116 BRCA2−/−, highest test concentration of 50 µM, 72 h): about 25%
- cell viability in combination with chemotherapeutics (HCT116 BRCA2−/− cells; HCT116 BRCA2−/−, IT 0.25 µM, 5-FU 0.1 µM, OXA 0.25 µM, 72 h): significant reduction in viability in HCT116 BRCA2^−/− cells in combination with the established cytostatic drug IT
- IC50 (HCT116 BRCA2−/− cells; Homo sapiens, HCT-116, 72 h): > 50 µM
- chromatin-bound PARP-1 (PARP-1 trapping) (PARP-1 [6]): No enrichment of PARP-1 in the chromatin fraction
- PARP-1 trapping (PARP-1 [7]): no effects were detected
- cell viability, monotreatment (HCT116 PARP-1+/+ cells; HCT116 PARP-1+/+, 72 h, up to 50 µM): Neither X17613 nor X17618 decreased cell viability
- cell viability in combination with cytostatics (HCT116 PARP-1+/+ cells; HCT116 PARP-1+/+, IT 0.5 µM, 5-FU 0.25 µM, OXA 0.5 µM, 72 h, PARPi added 2 h prior): did not affect the cytotoxicity of the anticancer drugs
- IC50 (HCT116 PARP-1+/+ cells; Homo sapiens, HCT-116, 72 h): > 50 µM
- cell viability, monotreatment (HCT116 PARP-1−/− cells; HCT116 PARP-1−/−, 72 h, up to 50 µM): Neither X17613 nor X17618 decreased cell viability
- cell viability in combination with cytostatics (HCT116 PARP-1−/− cells; HCT116 PARP-1−/−, IT 0.5 µM, 5-FU 0.25 µM, OXA 0.5 µM, 72 h, PARPi added 2 h prior): did not affect the cytotoxicity of the anticancer drugs
- IC50 (HCT116 PARP-1−/− cells; Homo sapiens, HCT-116, 72 h): > 50 µM
- IC50 (PARP-1 [3]): 0.041 µM
- IC50 (PARP-1 [3]; recombinant PARP-1, 1 h RT, n = 2): 0.0413 µM

Reference: article PMC11506018, “Targeting PARP-1 and DNA Damage Response Defects in Colorectal Cancer Chemotherapy with Established and Novel PARP Inhibitors” (Cancers, 2024)
